This passage reports EC50 results from US11339156B2, “3-(1H-pyrazol-4-yl)pyridine allosteric modulators of the M4 muscarinic acetylcholine receptor” (Merck Sharp & Dohme Corp., priority 2017, dated 2022).

This assay has as its target T1, human M4 muscarinic acetylcholine receptor (Homo sapiens, UniProt P08173).
T1 construct: expressed in transfected cells
T1 sequence (P08173 1-479): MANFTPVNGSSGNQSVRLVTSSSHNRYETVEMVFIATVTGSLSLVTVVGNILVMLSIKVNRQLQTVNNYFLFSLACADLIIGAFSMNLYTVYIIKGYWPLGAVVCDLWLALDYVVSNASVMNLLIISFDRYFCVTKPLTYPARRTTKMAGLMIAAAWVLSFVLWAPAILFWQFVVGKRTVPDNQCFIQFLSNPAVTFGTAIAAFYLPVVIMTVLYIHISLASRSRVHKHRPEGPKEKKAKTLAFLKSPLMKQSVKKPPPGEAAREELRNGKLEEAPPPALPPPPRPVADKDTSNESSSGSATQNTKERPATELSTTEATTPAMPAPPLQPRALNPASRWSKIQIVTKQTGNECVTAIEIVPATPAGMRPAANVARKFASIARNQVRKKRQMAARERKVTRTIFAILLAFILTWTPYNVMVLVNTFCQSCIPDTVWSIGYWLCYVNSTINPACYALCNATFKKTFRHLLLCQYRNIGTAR
Nature of the assay: human FLIPR-based M4 PAM assay (CHO-K1 cells with human M4 receptor and Gαqi5, calcium dye fluorescence). Conditions: inflection point of 4 parameter logistic fit; acetylcholine added at 20% of maximum response; read-out: M4PAM IP. Format: cell-based. The procedure: In a typical experiment the M4 muscarinic acetylcholine receptor modulating activity of the compounds of the present invention was determined in accordance with the following experimental method. CHO-K1 cells stably transfected with human M4 receptor and chimeric G-protein Gαqi5 (Coward P, et al., Analytical Biochemistry, 270:242-248 (1999)) are thawed from liquid N2 storage, resuspended in growth medium, plated in black, clear bottom 384 well plates, and incubated 16-20 hours at 37° C., 5% CO2. On the day of assay, growth medium is removed, the cells are washed 2 times with wash buffer, and cells are incubated in dye loading buffer at 37° C., 5% CO2 for ˜1 hour. Following dye loading the cell plates are placed in a FLIPR Tetra instrument and while monitoring dye fluorescence (excitation […]), 10 uL of test substance at increasing concentrations is added, and fluorescence values are recorded for 4 min. Next, 10 uL of acetylcholine is added (final concentration calculated so as to achieve 20% of the maximum acetycholine response), and the fluorescence reading is continued for 3.5 min. In some cases, a third addition of acetylcholine (final concentration calculated to achieve 70% of the maximal acetylcholine response) is performed. The resulting dose response curves are fit to a 4 parameter logistic equation and the final result is determined as the inflection point (IP) of the curve
CHO-K1 cells stably transfected with human M4 receptor and chimeric G-protein Gαqi5 are thawed from liquid N2 storage, resuspended in growth medium, plated in black, clear bottom 384 well plates, and incubated 16-20 hours at 37° C., 5% CO2.
On the day of assay, growth medium is removed, the cells are washed 2 times with wash buffer, and cells are incubated in dye loading buffer at 37° C., 5% CO2 for ˜1 h. Following dye loading the cell plates are placed in a FLIPR Tetra instrument and while monitoring dye fluorescence ([…]), 10 uL of test substance at increasing concentrations is added, and fluorescence values are recorded for 4 min. Next, 10 uL of acetylcholine is added (final concentration calculated so as to achieve 20% of the maximum acetycholine response), and the fluorescence reading is continued for 3.5 min. In some cases, a third addition of acetylcholine (final concentration calculated to achieve 70% of the maximal acetylcholine response) is performed.
As for `CCC1(Cn2cc(-c3ccc(C#N)nc3-c3ccn4ccnc4c3)cn2)CC1` [Example 37, 5-{1-[(1-ethylcyclopropyl)methyl]-1H-pyrazol-4-yl}-6-imidazo[1,2-a]pyridin-7-ylpyridine-2-carbonitrile], the EC50 was determined as 14.5 nM.
In the case of `Cc1ccc(-c2cnn(CCC(C)C)c2)c(-c2ccc3c(c2)CNC3)n1` [Example 75, 5-{6-methyl-3-[1-(3-methylbutyl)-1H-pyrazol-4-yl]pyridin-2-yl}-2,3-dihydro-1H-isoindole], the EC50 came out at 106 nM.
In the case of `Cc1cn2ccc(-c3nc(C#N)ccc3-c3cnn(CC(F)(F)C(F)(F)C(F)F)c3)cc2n1` [Example 23, 5-[1-(2,2,3,3,4,4-hexafluorobutyl)-1H-pyrazol-4-yl]-6-(2-methylimidazo[1,2-a]pyridin-7-yl)pyridine-2-carbonitrile] it was 42.3 nM; in that of `CC(C)(C)Cn1cc(-c2ccc(C(F)F)nc2-c2ccn3ccnc3c2)cn1` [Example 98, 7-{6-(difluoromethyl)-3-[1-(2,2-dimethylpropyl)-1H-pyrazol-4-yl]pyridin-2-yl}imidazo[1,2-a]pyridine], 40.8 nM.
The same measure for `Cc1cn2ccc(-c3nc(C#N)ccc3-c3cnn(CCC(O)C(F)(F)F)c3)cc2n1` (centres unmarked) [Example 43, 6-(2-methylimidazo[1,2-a]pyridin-7-yl)-5-[1-(4,4,4-trifluoro-3-hydroxybutyl)-1H-pyrazol-4-yl]pyridine-2-carbonitrile]: 88.3 nM; for `CC1(Cn2cc(-c3ccc(C#N)nc3-c3ccn4ccnc4c3)cn2)CCOC1` (racemic) [Example 108, 6-(imidazo[1,2-a]pyridin-7-yl)-5-(1-((3-methyltetrahydrofuran-3-yl)methyl)-1H-pyrazol-4-yl)picolinonitrile]: 95.9 nM.
For `Cc1cn2ccc(-c3nc(C#N)ccc3-c3cnn(CC(C)(C)C)c3)cc2n1` [Example 81, 5-[1-(2,2-dimethylpropyl)-1H-pyrazol-4-yl]-6-(2-methylimidazo[1,2-a]pyridin-7-yl)pyridine-2-carbonitrile], the EC50 is 24.7 nM.
As for `COc1ccc(-c2cnn(CC(C)(C)C)c2)c(-c2ccn3cc(C)nc3c2)n1` [Example 85, 7-{3-[1-(2,2-dimethylpropyl)-1H-pyrazol-4-yl]-6-methoxypyridin-2-yl}-2-methylimidazo[1,2-a]pyridine], the EC50 came out at 149 nM.
For the molecule `CC(C)(C)Cn1cc(-c2ccc(C(F)(F)F)nc2-c2ccn3ccnc3c2)cn1` [Example 83, 7-{3-[1-(2,2-dimethylpropyl)-1H-pyrazol-4-yl]-6-(trifluoromethyl)pyridin-2-yl}imidazo[1,2-a]pyridine], the EC50 turned out to be 46 nM.
The same measure for `Cc1ccc(-c2cnn(CCC(C)(C)F)c2)c(-c2ccc3c(c2)C(=O)N(C)C3)n1` [Example 9, 6-{3-[1-(3-fluoro-3-methylbutyl)-1H-pyrazol-4-yl]-6-methylpyridin-2-yl}-2-methyl-2,3-dihydro-1H-isoindol-1-one]: 80.8 nM.
As for `CC(C)(C)Cn1cc(-c2ccc(C3CC3)nc2-c2ccn3ccnc3c2)cn1` [Example 99, 7-{6-cyclopropyl-3-[1-(2,2-dimethylpropyl)-1H-pyrazol-4-yl]pyridin-2-yl}imidazo[1,2-a]pyridine], the EC50 was 152 nM.
The same measure for `Cc1nc2cc(-c3nc(C#N)ccc3-c3cnn(CC(C)(C)C(C)(F)F)c3)ccc2n1C` [Example 28, 5-[1-(3,3-difluoro-2,2-dimethylbutyl)-1H-pyrazol-4-yl]-6-(1,2-dimethyl-1H-benzimidazol-5-yl)pyridine-2-carbonitrile]: 67.4 nM.
In the case of `Cc1cn2ccc(-c3nc(C#N)ccc3-c3cnn(CC4(CC(C)C)CC4)c3)cc2n1` [Example 35, 6-(2-methylimidazo[1,2-a]pyridin-7-yl)-5-(1-{[1-(2-methylpropyl)cyclo-propyl]methyl}-1H-pyrazol-4-yl)pyridine-2-carbonitrile], the EC50 is 108 nM.
The same measure for `CC(C)(C)Cn1cc(-c2cc(F)cnc2-c2ccn3ccnc3c2)cn1` [Example 80, 7-{3-[1-(2,2-dimethylpropyl)-1H-pyrazol-4-yl]-5-fluoropyridin-2-yl}imidazo[1,2-a]pyridine]: 97.7 nM; for `Cc1cn2ccc(-c3nc(C#N)ccc3-c3cnn(CCC(C)(C)F)c3)cc2n1` [Example 119, 5-[1-(3-fluoro-3-methylbutyl)-1H-pyrazol-4-yl]-6-(2-methylimidazo[1,2-a]pyridin-7-yl)pyridine-2-carbonitrile]: 55.9 nM; for `Cn1nnc2cc(-c3nc(C#N)ccc3-c3cnn(CC(C)(C)C)c3)ccc21` [Example 68, 5-[1-(2,2-dimethylpropyl)-1H-pyrazol-4-yl]-6-(1-methyl-1H-benzotriazol-5-yl)pyridine-2-carbonitrile]: 55.8 nM.
In the case of `Cc1nc2cc(-c3nc(C#N)ccc3-c3cnn(CC(C)(C)C)c3)ccn2n1` [Example 63, 6-(2-methyl-[1,2,4]triazolo[1,5-a]pyridin-7-yl)-5-(1-neopentyl-1H-pyrazol-4-yl)picolinonitrile] it was 46.8 nM.
The same measure for `N#Cc1ccc(-c2cnn(C[C@H]3C[C@@H]3C(F)(F)F)c2)c(-c2ccn3ccnc3c2)n1` [Example 25, 6-imidazo[1,2-a]pyridin-7-yl-5-(1-{[(1S,2S)-2-(trifluoromethyl)cyclo-propyl]methyl}-1H-pyrazol-4-yl)pyridine-2-carbonitrile]: 78.1 nM; for `CC(C)CCn1cc(-c2cccnc2-c2ccc3c(c2)C(=O)N(C2CCC2)C3)cn1` [Example 116, 2-cyclobutyl-6-{3-[1-(3-methylbutyl)-1H-pyrazol-4-yl]pyridin-2-yl}-2,3-dihydro-1H-isoindol-1-one]: 84.6 nM; for `Cc1ccc(-c2cnn(CC3(C)CCCCC3)c2)c(-c2ccc3c(C)n[nH]c3c2)n1` [Example 4, 3-methyl-6-(6-methyl-3-{1-[(1-methylcyclohexyl)methyl]-1H-pyrazol-4-yl}pyridin-2-yl)-1H-indazole]: 69.9 nM.
With `Cc1nc2cc(-c3ncc(F)cc3-c3cnn(CCC(C)(C)F)c3)ccc2n1C` [Example 120, 5-(5-fluoro-3-(1-(3-fluoro-3-methylbutyl)-1H-pyrazol-4-yl)pyridin-2-yl)-1,2-dimethyl-1H-benzo[d]imidazole], the EC50 is 401 nM.
As for `Cc1nnc2cc(-c3nc(C#N)ccc3-c3cnn(CC(C)(C)C)c3)ccn12` [Example 70, 5-[1-(2,2-dimethylpropyl)-1H-pyrazol-4-yl]-6-(3-methyl[1,2,4]triazolo[4,3-a]pyridin-7-yl)pyridine-2-carbonitrile], the EC50 was found to be 102 nM.
Take `Cc1ccc(-c2cnn(CCC(C)C)c2)c(-c2ccc3c(c2)CN(C(=O)OC(C)(C)C)C3)n1` [Example 76, tert-butyl 5-{6-methyl-3-[1-(3-methylbutyl)-1H-pyrazol-4-yl]pyridin-2-yl}-1,3-dihydro-2H-isoindole-2-carboxylate]: the EC50 was 76 nM.
In the case of `CN1Cc2ncc(-c3nc(C#N)ccc3-c3cnn(CC(C)(C)C)c3)cc2C1=O` [Example 65, 5-[1-(2,2-dimethylpropyl)-1H-pyrazol-4-yl]-6-(6-methyl-5-oxo-6,7-dihydro-5H-pyrrolo[3,4-b]pyridin-3-yl)pyridine-2-carbonitrile] it was 93.1 nM; in that of `CC(C)(C)Cn1cc(-c2ccc(C#N)nc2-c2ccn3ccnc3c2)cn1` [Example 48, 5-[1-(2,2-dimethylpropyl)-1H-pyrazol-4-yl]-6-imidazo[1,2-a]pyridin-7-ylpyridine-2-carbonitrile], 29.7 nM; in that of `CC(C)(C)Cn1cc(-c2ccc(C#N)nc2-c2ccn3cc(C(F)F)nc3c2)cn1` [Example 64, 6-[2-(difluoromethyl)imidazo [1,2-a]pyridin-7-yl]-5-[1-(2,2-dimethylpropyl)-1H-pyrazol-4-yl]pyridine-2-carbonitrile], 14.6 nM.
